In patent US11672815B2, “Composition for inhibiting immune cell proliferation comprising sialyllactose or derivative thereof and method thereof” (CUPIONE CO., LTD., priority 2017, dated 2023):
Each block holds one compound with its values, some of them ahead of it.

Columns and labels:
mouse FLS [1] = assay: Chemokine, pro-inflammatory cytokine and COX2 expression in stimulated mouse FLS; type: cell-based; conditions: IL-1β-, IL-6-, IL-17-, and TNF-α-stimulated mouse FLS; 100 μM or 250 μM, 24 hrs
Procedure: (§1) Anti-chemokine and anti-inflammatory effects of 3′-sialyllactose were examined. First, purity of mouse FLS was examined by FACS analysis, and then no effects of 3′-sialyllactose on FLS proliferation and cytotoxicity were examined by WST-1 assay (see FIGS. 14A-A to 14A-C). […] Therefore, in a subsequent in vitro experiment, 3′-sialyllactose was used at a concentration of 0 μM to 250 μM. In order to examine effects of 3′-sialyllactose on IL-1β-, IL-6-, IL-17-, and TNF-α-induced chemokines (e.g., CCL2, CCL5, CCL7, CXCL1, CXCL2, and CXCL5), pro-inflammatory cytokines (IL-1, IL-6, and TNF-α), and COX2 expression, IL-1β-, IL-6-, IL-17-, and TNF-α-stimulated human RA-FLS and mouse FLS were treated with 3′-sialyllactose (100 μM or 250 μM) for 24 hrs.

[2] = tested on: extracellular-signal regulated kinase (Erk); assay: Erk phosphorylation in IL-1β-treated chondrocytes (Western blotting, densitometry); type: cell-based, mouse; conditions: 5 ng/ml of IL-1β, 0 μM, 50 μM, 100 μM, or 250 μM
Procedure: Chondrocytes of mouse knee joint were treated with 5 ng/ml of IL-1β for 10 min to examine activation of extracellular-signal regulated kinase (Erk) through Erk phosphorylation.
Chondrocytes were co-treated with 5 ng/ml of IL-1β and 0 μM, 50 μM, 100 μM, or 250 μM of 3′-sialyllactose, and Erk phosphorylation increased by IL-1β was confirmed to be decreased by 3′-sialyllactose (FIG. 8).

[3] = tested on: DMM-induced osteoarthritis mouse model; assay: DMM-induced osteoarthritis mouse model, oral administration; type: in vivo
Procedure: All animal experiments were approved by the Animal Care and Use Committee of the University of Ajou. For osteoarthritis models, 8-week-old male C57BL/6 mice were subjected to destabilization of the medial meniscus (DMM) surgery. Mice knee joints were processed for histological analysis 10 weeks after surgery. In detail, the experimental mice also received gavage feeding of PBS containing 3′-sialyllactose (100 mg/Kg) starting at 2 weeks prior to DMM, and oral feeding on every other day during 4 weeks after surgery, and performed three times a week for total 6 weeks until the end of the experiment. Then, the mice were sacrificed. Control mice were administered with PBS in the same manner.
Knee joints of the mice sacrificed in Example 6-1 were fixed in 4% paraformaldehyde, treated with 0.5 M EDTA (pH 8.0) for 2 weeks, and embedded in paraffin. The paraffin blocks were sectioned at a thickness of 5 μm and serial-sectioned at 40-μm intervals. The paraffin sections were deparaffinized in xylene and hydrated with graded ethanol. Cartilage destruction was detected by Safranin-O staining and scored using the Osteoarthritis Research Society International (OARSI) grading system. Mmp3 (ab52915), Mmp13 (ab51072), Cox2 (SC-1745), pErk ((#9101), IjB (9242), Sox9 (NBP2-24659; Novus, Littleton, USA) and Col2a1 (MAB8887) were immunostained as previously described.

[4] = tested on: mouse models with rheumatoid arthritis; assay: Therapeutic effect in mice with arthritis; type: in vivo; conditions: 500 mg/kg oral every other day for 2 weeks
Procedure: Next, in order to examine therapeutic effects of 3′-sialyllactose, mice with arthritis were orally administered with 3′-sialyllactose. In detail, 8-week-old DBA mice were immunized day 0 and day 21, and then orally administered with 500 mg/kg of 3′-sialyllactose every other days for 2 weeks. Control groups were administered with lactose (250 mg/kg), sialic acid (250 mg/kg), or MTX (1 mg/kg).

chondrocytes = assay: Cytotoxicity of sialyllactose on chondrocytes (EZ-Cytox cell viability assay); type: cell-based, mouse; conditions: 0 μM, 10 μM, 50 μM, 100 μM, or 250 μM, 24 hrs
Procedure: Chondrocytes were obtained from cartilage tissues derived from femoral heads, femoral condyles, and tibial plateaus of normal mouse at 5 days after birth. The obtained chondrocytes were cultured in DMEM medium (Gibco, USA) containing 10% (v/v) fetal bovine serum (Gibco, USA), 50 μg/ml of streptomycin (Sigma-Aldrich, USA) and 50 unit/ml of penicillin (Sigma-Aldrich, USA).
In order to confirm that 3′- or 6′-sialyllactose has no cytotoxicity on chondrocytes, chondrocytes were cultured in a 96-well culture plate at a density of 9×10^3 cells/well, and then treated with 3′- or 6′-sialyllactose (Genechem Inc., Daejeon, Korea) at a concentration of 0 μM, 10 μM, 50 μM, 100 μM, or 250 μM, followed by incubation in a 5% CO2 incubator at 37° C. for 24 hrs. Cytotoxicity of 3′- or 6′-sialyllactose on chondrocytes was confirmed by measuring absorbance at 450 nm using an EZ-Cytox Cell viability assay kit (DoGen, Korea).

mouse FLS [5] = assay: WST-1 assay on mouse FLS; type: cell-based
Procedure: as §1

human RA-FLS = assay: Chemokine, pro-inflammatory cytokine and COX2 expression in stimulated human RA-FLS; type: cell-based; conditions: IL-1β-, IL-6-, IL-17-, and TNF-α-stimulated human RA-FLS; 100 μM or 250 μM, 24 hrs
Procedure: as §1

Sox-9 = Sox-9 reporter gene luciferase activity in chondrocytes; type: cell-based, mouse; conditions: co-treated with 5 ng/ml IL-1β and 0 to 250 μM for 24 hrs
Procedure: A Sox-9 reporter gene was prepared by inserting 48-bp Sox9 binding site in the first intron of human Col2a1 gene into the upstream of SV40 promoter in pGL3 vector (Zhou G et al., J Biol Chem 1998, 12, 14989-97).
1 μg of the Sox-9 reporter gene was transfected into chondrocytes using lipofectamine 2000 (Invitrogen) for 3 hrs. The transfected cells were co-treated with 5 ng/ml interleukin 1 beta (IL-1β) and 0 μM, 10 μM, 50 μM, 100 μM, or 250 μM of 3′- or 6′-sialyllactose for 24 hrs, and then chondrocytes were recovered to examine Sox-9 activity by luciferase activity.

[6] = tested on: type II collagen (Col2a1); assay: Col2a1 expression in chondrocytes (qRT-PCR, Western blotting); type: cell-based, mouse; conditions: for Col2a1 expression in chondrocytes: 0 to 250 μM, 36 hrs; for Col2a1 expression suppressed by IL-1β in chondrocytes: 5 ng/ml of IL-1β
Procedure: In order to examine effects of 3′- or 6′-sialyllactose on cartilage formation and regeneration, the chondrocytes obtained in Example 1 were incubated for 36 hrs and then treated with 3′- or 6′-sialyllactose at a concentration of 0 μM, 10 μM, 50 μM, 100 μM, or 250 μM, followed by further incubation for 36 hrs.
Next, in order to perform qRT-PCR, RNA was extracted from the chondrocytes using a TRI reagent (Molecular Research Center Inc.), and cDNA obtained by reverse transcription of RNA was amplified by PCR using primers of SEQ ID NOS: 1 and 2 under condition of annealing temperature of 55° C. to examine expression of type II collagen (Col2a1, 173 bp) which is essential for cartilage formation. As a control group, Gapdh (450 bp, annealing temperature of 58° C.) was examined by using primers of SEQ ID NOS: 3 and 4.
Further, a whole cell lysate was extracted from the chondrocytes using a lysis buffer (150 mM NaCl, 1% NP-40, 50 mM Tris, 5 mM NaF) containing protease and phosphatase inhibitor cocktails (Roche), and Col2a1 expression in the cells was examined. Western blotting was performed using anti-Col2a1 antibody (Millipore) and anti-Erk antibody (Cell signaling), and thickness and concentration of Western blot bands were measured by a computer program and relative values thereof were determined by densitometry (FIGS. 4A and 4B).
IL-1β is a representative inflammatory cytokine inhibiting Col2a1 expression in chondrocytes. Chondrocytes were incubated for 36 hrs, and then treated with 5 ng/ml of IL-1β (GeneScript, USA) for 24 hrs to confirm that Col2a1 expression was decreased by IL-1β.
In order to examine whether the decreased Col2a1 expression is increased again in chondrocytes by 3′- or 6′-sialyllactose, qRT-PCR and Western blotting were performed in the same manner as in Example 2-1.

Mmp13 = Mmp13 expression in IL-1β-treated chondrocytes (qRT-PCR, Western blotting); type: cell-based, mouse; conditions: 5 ng/ml of IL-1β, 0 to 250 μM, 24 hrs; concentration-dependent
Procedure: (§2) IL-1β is a representative inflammatory cytokine that decreases Col2a1 essential for cartilage formation in chondrocytes and also promotes articular inflammation and cartilage tissue destruction. Chondrocytes were treated with 5 ng/ml of IL-1β by time, and then qRT-PCR was performed using conditions and primers of the following Table 1 according to the method of Example 2-1 to examine inhibition of Mmp3 and Mmp13 expression.
(§3) Secretory proteins such as Mmp3 and Mmp13 were allowed to react at 0° C. for 20 min after reacting 900 μl of serum-free medium (conditioned medium) with 100 μl of trichloroacetic acid (TCA). Next, a supernatant was discarded by centrifugation at 12,000 rpm and 4° C. for 10 min, and then reacted with 500 μl of 100% cold acetone at […] for 1 hr. The sample reacting with 100% acetone was centrifuged to discard a supernatant, and proteins were finally precipitated and detected. Western blotting was performed using anti-Mmp3 antibody (Abcam) and anti-Mmp13 antibody (Abcam), and thickness and concentration of Western blot bands were measured by a computer program and relative values thereof were determined by densitometry.

[7] = tested on: collagen-induced arthritis (CIA) mouse model; assay: Prophylactic effect in collagen-induced arthritis (CIA) mouse model; type: in vivo; conditions: 100 mg/kg and 500 mg/kg oral, 4 weeks
Procedure: In order to examine prophylactic effects of 3′-sialyllactose during development of arthritis, collagen-induced arthritis (CIA) mouse model was orally administered with 3′-sialyllactose three times a week for 4 weeks at various concentrations (100 mg/kg and 500 mg/kg). In detail, the mouse models immunized day 1 and day 21 were orally administered with 3′-sialyllactose every other days for 4 weeks after second immunization. Control groups were orally administered with PBS, lactose, or sialic acid.

[8] = tested on: synovial tissues of ankle and knee joints; assay: Staining of ankle and knee joints in rheumatoid arthritis mice (FLS and immune cell proliferation); type: in vivo, mouse
[9] = tested on: atopic dermatitis mouse model; assay: Atopic dermatitis mouse model, oral administration; type: in vivo; conditions: 100 mg/kg or 500 mg/kg oral
Procedure: In order to examine inhibitory effect of 3′-sialyllactose on atopic dermatitis, ear thickness of atopic dermatitis mouse model was examined at 28 days after oral administration of 100 mg/kg or 500 mg/kg of 3′-sialyllactose. Further, the left ear skin of the mouse was cut into thin sections, stained with hematoxylin and eosin (H&E), and stained with toluidine blue.

Mmp3 = Mmp3 expression in IL-1β-treated chondrocytes (qRT-PCR, Western blotting); type: cell-based, mouse; conditions: 5 ng/ml of IL-1β, 0 to 250 μM, 24 hrs; concentration-dependent
Procedure: as §2, §3

Mmp3, Mmp13, and COX2 = assay: Mmp3, Mmp13 and COX2 expression in IL-1β-treated mouse FLS; type: cell-based
Procedure: as §1
FIGS. 14A-A and 14A-B show FACS results of analyzing marker expression on the FLS surfaces in a mouse according to passages (FIG. 14A-A: CD90.2; FIG. 14A-B: CD14), and a graph of cytotoxicity confirmed by WST-1 assay (FIG. 14A-C), and FIG. 14B is a graph showing Mmp3, Mmp13, and COX2 expression levels according to lactose, sialic acid, and 3′-sialyllactose in IL-1β-treated mouse FLS.

Sox-9 activity decreased by IL-1β (Sox-9): restored
SMILES: CC(=O)N[C@H]1C([C@H](O)[C@H](O)CO)O[C@@](O[C@@H]2C(O)[C@H](O[C@@H]3C(CO)OC(O)C(O)[C@H]3O)OC(CO)[C@@H]2O)(C(=O)[O-])C[C@H]1O.[Na+] (stereo partly drawn) [3′-sialyllactose]
expression levels of chemokines, pro-inflammatory cytokines, and COX2 (mouse FLS [1]): remarkably decreased | Erk phosphorylation increased by IL-1β [2]: decreased | OARSI scores (cartilage destruction) compared with control mouse ([3]; 100 mg/Kg gavage, 10 weeks after DMM surgery): remarkably low | Cox2 expression (immunohistochemical staining) ([3]; 100 mg/Kg oral, DMM model): decreased | Mmp3 expression (immunohistochemical staining) ([3]; 100 mg/Kg oral, DMM model): decreased | Mmp13 expression (immunohistochemical staining) ([3]; 100 mg/Kg oral, DMM model): decreased | expression of pro-inflammatory cytokines (mouse sera) [4]: decreased | swelling [4]: alleviated | cytotoxicity on chondrocytes (chondrocytes): did not show cytotoxicity | FLS proliferation and cytotoxicity (mouse FLS [5]): no effects | expression levels of chemokines, pro-inflammatory cytokines, and COX2 (human RA-FLS): remarkably decreased | Col2a1 expression in chondrocytes [6]: increased | Col2a1 expression suppressed by IL-1β in chondrocytes [6]: gradually increased | Mmp13 expression increased by IL-1β in chondrocytes (Mmp13): decreased | expression of pro-inflammatory cytokines (mouse sera) [7]: decreased | swelling of CIA mouse model [7]: alleviated | proliferation of macrophages by rheumatoid arthritis ([8]; ankle and knee synovial tissue, anti-CD68 staining): significantly decreased | proliferation of FLS by rheumatoid arthritis ([8]; ankle and knee synovial tissue, anti-CD90.2 staining): significantly decreased | proliferation of neutrophils by rheumatoid arthritis ([8]; ankle and knee synovial tissue, elastase staining): significantly decreased | synovial hyperplasia and infiltration of mononuclear cells into the ankle and knee joints ([8]; hematoxylin and Safranin-O staining): inhibit | mouse ear thickness ([9]; 28 days): decreased | ear dermal thickness ([9]; concentration-dependent): decreased | ear epidermal thickness ([9]; concentration-dependent): decreased | number of mast cells in the ear skin (toluidine blue staining) ([9]; concentration-dependent): decreased | Mmp3 expression increased by IL-1β in chondrocytes (Mmp3): decreased

Sox-9 activity decreased by IL-1β (Sox-9): restored
SMILES: CC(=O)N[C@H]1C([C@H](O)[C@H](O)CO)O[C@@](OCC2O[C@@H](O[C@@H]3C(CO)OC(O)C(O)[C@H]3O)C(O)[C@@H](O)[C@H]2O)(C(=O)[O-])C[C@H]1O.[Na+] (stereo partly drawn) [6′-sialyllactose]
cytotoxicity on chondrocytes (chondrocytes): did not show cytotoxicity | Col2a1 expression in chondrocytes [6]: increased | Col2a1 expression suppressed by IL-1β in chondrocytes [6]: gradually increased | Mmp13 expression increased by IL-1β in chondrocytes (Mmp13): decreased | Mmp3 expression increased by IL-1β in chondrocytes (Mmp3): decreased

SMILES: OC[C@H]1O[C@@H](O[C@H]2[C@H](O)[C@@H](O)C(O)O[C@@H]2CO)[C@H](O)[C@@H](O)[C@H]1O (stereo partly drawn) [lactose]
Mmp3, Mmp13, and COX2 expression levels, control groups for 3′-sialyllactose (Mmp3, Mmp13, and COX2): no significant difference
